Assay results taken from PubChem BioAssay AID212 (DTP/NCI, 2004).
Values joined by “and” are separate entries in the source; they are usually repeats but may differ in a detail not shown here. Equal entries are not always repeated. Results filed as inconclusive are left out.

Tested on: BDF1 mice, colon carcinoma 38 sc, T/C %
Experiment: NCI In Vivo Anticancer Drug Screen. Data for tumor model Colon Carcinoma 38 (subcutaneous) in B6D2F1 (BDF1) mice
Settings: endpoint: median tumor weight (est.), schedule: Q07DX002 (ip), higher = larger tumour
Description: The antitumor activity of compounds was measured in mice bearing transplantable tumors. Survival or tumor size were measured and the results are expressed as the measurement made in the treated group (T) divided by the measurement made in the vehicle treated control group (C). The tumor model used in this assay is Colon Carcinoma 38 (subcutaneous) in B6D2F1 (BDF1) mice

[1] = dose: 32.0 mg/kg/injection, vehicle: saline
[2] = dose: 12.5 mg/kg/injection, vehicle: saline
[3] = dose: 25.0 mg/kg/injection, vehicle: saline
[4] = dose: 50.0 mg/kg/injection, vehicle: saline
[5] = dose: 200.0 mg/kg/injection, vehicle: saline with Tween-80
[6] = dose: 400.0 mg/kg/injection, vehicle: saline with Tween-80

NNC(=O)c1ccncc1
T/C [1]: 118 % of control | T/C (dose: 36.0 mg/kg/injection, vehicle: saline): 77 % of control and 98 % of control | T/C (dose: 64.0 mg/kg/injection, vehicle: saline): 104 % of control | T/C (dose: 72.0 mg/kg/injection, vehicle: saline): 75 % of control and 95 % of control | T/C (dose: 128.0 mg/kg/injection, vehicle: saline): 120 % of control | T/C (dose: 144.0 mg/kg/injection, vehicle: saline): 120 % of control

Nc1nc(/C=C(/O)c2ccccc2)c2ncn(C3OC(CO)C(O)C3O)c2n1 (stereo not drawn)
T/C (dose: 12.5 mg/kg/injection, vehicle: distilled water + Tween-80): 100 % of control | T/C [2]: 120 % of control | T/C (dose: 25.0 mg/kg/injection, vehicle: distilled water + Tween-80): 85 % of control | T/C [3]: 87 % of control | T/C [4]: 89 % of control | T/C (dose: 100.0 mg/kg/injection, vehicle: distilled water + Tween-80): 110 % of control | T/C (dose: 100.0 mg/kg/injection, vehicle: saline): 99 % of control | T/C (dose: 200.0 mg/kg/injection, vehicle: saline): 120 % of control

OCCN1CCN(CC/C=C2/c3ccccc3Sc3ccc(C(F)(F)F)cc32)CC1
T/C (dose: 1.56 mg/kg/injection, vehicle: saline): 110 % of control | T/C (dose: 3.12 mg/kg/injection, vehicle: saline): 121 % of control | T/C (dose: 6.25 mg/kg/injection, vehicle: saline): 100 % of control | T/C [2]: 95 % of control | T/C [3]: 120 % of control | T/C [4]: 68 % of control

COC1=C(OC)C(=O)C(SC/C=C(\C)CCCC(C)CCCC(C)CCCC(C)C)=CC1=O (stereo not drawn)
T/C (dose: 25.0 mg/kg/injection, vehicle: saline with Tween-80): 55 % of control | T/C (dose: 100.0 mg/kg/injection, vehicle: saline with Tween-80): 116 % of control | T/C [5]: 86 % of control | T/C [6]: 102 % of control

Nc1ncn(C2OC(CO)C(O)C2O)c(=O)n1 (stereo not drawn)
T/C [2]: 69 % of control | T/C [1]: 19 % of control and 31 % of control | T/C [4]: 80 % of control and 85 % of control and 97 % of control | T/C [5]: 88 % of control | T/C [6]: 61 % of control | T/C (dose: 400.0 mg/kg/injection, vehicle: saline): 62 % of control and 79 % of control and 82 % of control | T/C (dose: 800.0 mg/kg/injection, vehicle: saline with Tween-80): 95 % of control | T/C (dose: 800.0 mg/kg/injection, vehicle: saline): 27 % of control | T/C (dose: 1200.0 mg/kg/injection, vehicle: saline with Tween-80): 55 % of control

O=C1C=C2C(=CCOC2O)O1 (stereo not drawn)
T/C (dose: 0.75 mg/kg/injection, vehicle: saline): 91 % of control | T/C (dose: 1.0 mg/kg/injection, vehicle: water): 98 % of control | T/C (dose: 1.5 mg/kg/injection, vehicle: saline): 72 % of control | T/C (dose: 2.0 mg/kg/injection, vehicle: water): 90 % of control | T/C (dose: 4.0 mg/kg/injection, vehicle: water): 117 % of control

COC(=O)C12OCC34C(CC5C(C)C6=CC(=O)OC6=CC5(C)C3C(O)C1O)OC(=O)C(OC(C)=O)C24 (stereo not drawn)
T/C (dose: 0.25 mg/kg/injection, vehicle: saline + alcohol): 86 % of control | T/C (dose: 0.5 mg/kg/injection, vehicle: saline + alcohol): 65 % of control | T/C (dose: 1.0 mg/kg/injection, vehicle: saline + alcohol): 96 % of control | T/C (dose: 2.0 mg/kg/injection, vehicle: saline + alcohol): 105 % of control | T/C (dose: 4.0 mg/kg/injection, vehicle: saline + alcohol): 114 % of control
